Laboratory results from US20230355596A1, “COMPOSITIONS AND METHODS OF USING NMDAR INHIBITORS AND KINASE INHIBITORS TO TREAT LIVER CANCER” (The University of Hong Kong, priority 2022, published 2023).
Like-named read-outs stand apart in the source and are kept apart here.

Experiments:
NMDAR subunits = conditions: cited from earlier work
MHCC97L cells = experiment: MTT cell viability assay and drug interaction analysis; assay type: cell-based, human; conditions: single drug
pancreatic cancer cells = conditions: cited from earlier work
HCC patients [1] = conditions: phase III BRISK-PS, secondary treatment; cited from earlier work
HCC patients [2] = conditions: phase II, cited from earlier work
HCC patients [3] = conditions: phase III, first line; cited from earlier work
advanced HCC patients = conditions: 28 patients; cited from earlier work
HCC patients [4] = conditions: single arm phase II; cited from earlier work
HCC patients [5] = conditions: phase III versus sorafenib; cited from earlier work

C[C@]12N[C@H](Cc3ccccc31)c1ccccc12 [MK-801, Dizocilpine (MK-801)]
NMDAR subunit selectivity (NMDAR subunits): blocks all NMDAR subunits in a non-selective manner
toxicity / safety as therapeutic agent (NMDAR subunits): poses high toxicity and is less tolerated
HCC growth, NMDAR inhibitor alone (MHCC97L cells): did not significantly suppress
tumor growth and invasiveness of pancreatic cancer cells (pancreatic cancer cells): reduced tumor growth and invasiveness

Cc1cc2c(F)c(Oc3ncnn4cc(OC[C@@H](C)O)c(C)c34)ccc2[nH]1 [brivanib]
median length of overall survival (HCC patients [1]): 9.4 months
median overall survival (HCC patients [2]; first line): 10 months
median overall survival (HCC patients [2]; second line): 9.5 months
Median survival (HCC patients [3]): 9.5 months
discontinuation rate (HCC patients [3]): 43%

CO[C@H]1C[C@@H]2CC[C@@H](C)[C@@](O)(O2)C(=O)C(=O)N2CCCC[C@H]2C(=O)O[C@H]([C@H](C)C[C@@H]2CC[C@@H](OCCO)[C@H](OC)C2)CC(=O)[C@H](C)/C=C(\C)[C@@H](O)[C@@H](OC)C(=O)[C@H](C)C[C@H](C)/C=C/C=C/C=C/1C [everolimus]
median progression free survival (advanced HCC patients): 3.8 months
overall survival (advanced HCC patients): 8.4 months

Cc1ccc(F)c(NC(=O)Nc2ccc(-c3cccc4[nH]nc(N)c34)cc2)c1 [linifanib]
safety profile (HCC patients [4]): acceptable safety profile

CCN(CC)CCNC(=O)c1c(C)[nH]c(/C=C2\C(=O)Nc3ccc(F)cc32)c1C [sunitinib]
trial outcome (HCC patients [5]): terminated early due to increased side effects and futility concerns
